Results: US8053415B2, “Compounds having RD targeting motifs” (Washington University in St. Louis, priority 2005, dated 2011)
Entries after “also recorded” stand apart in the source; their conditions may differ. Read-outs that look alike come from different tables or passages of the source. Each block holds one compound with its values, some of them ahead of it. Where a SMILES comes first, the peptide text is derived from it. Where no end group is shown, it is not given here. [ ]: non-standard residue; d: D form. The star is where a group is joined. Cypate = CC1(C)C(/C=C/C=C/C=C/C=C2/N(CCC(=O)*)c3ccc4ccccc4c3C2(C)C)=[N+](CCC(=O)O)c2ccc3ccccc3c21

Legend:
[1] = target: T1, purified human αvβ3 integrin protein (Homo sapiens, UniProt P05106+P06756); assay: Competitive αvβ3 integrin receptor binding assay with 125I-echistatin tracer (Example 2)
T1 construct: purchased Chemicon International, Inc. (Temecula, Calif.)
Procedure: The binding affinities were measured based on the competitive binding between purified αvβ3 integrin (ABI) and peptide ligands. Echistatin is a polypeptide that binds irreversibly with high affinity and specificity to ABI. ^125I-echistatin was used as a tracer in ABI binding assays.
Receptor binding assays were performed by using purified human αvβ3 integrin protein from Chemicon International, Inc. (Temecula, Calif.). Assays were carried out using the Millipore Duropore membrane 96-well plates and the Millipore MultiScreen system (Bedford, Mass.). The 96-well membrane plate was blocked with 0.1% Polythylenimine blocking solution overnight at 4° C. ^125I-echistatin (50 nmol/L) was added to the binding buffer (50 mM Tris-HCl, pH 7.4, 100 mM NaCl, 2 mM CaCl2, 1 mM MgCl2, 1 mM MnCl2, 1% BSA) containing integrin protein (50 ng per well in 96-well membrane plate) and ligands in a total volume of 200 μL per well. The concentration range of ligand was between 0.01 μM and 100 μM. The mixtures were incubated for 2 h at room temperature, the ABI was then filtered by centrifugation at 1500 g and washed three times with 0.20 mL of ice-cold binding buffer. The filters containing radioactivity bound ABI were removed using a punch apparatus and counted using a Packard Cobra II Auto-gamma counter (Meriden, Conn.). […] Radiolabeling of ^125I-echistatin (Amersham Biosciences, Piscataway, N.J.) was carried out in a mixture of 0.25% BSA, 5.0% lactose, 0.21% citric acid and aprotinin (0.9 TIU/ml).

A549 tumor [2] = assay: In vivo fluorescence optical imaging and ex vivo organ distribution in A549 tumor-bearing nude mice; details: for uptake / retention in A549 tumor: 0.3 μmol per kg via lateral tail vein, fluorescence imaging
Procedure: All in vivo studies were performed in compliance with the Washington University in St Louis Animal Study Committee's requirements for the care and use of laboratory animals in research. Nude mice (18-22 g) were anesthetized with xylazine/ketamine cocktail via intraperitoneal injection and placed in a supine position. The mice were injected subcutaneously with A549 cells (1×10^6) in the lower back of the mice. Tumor masses were palpable at 5-7 days post implant, which reached 5 mm in 10-15 days. Prior to injection of the probe, the mice were anesthetized as described above. A 29-gauge needle was used to inject the probes into the mouse via the lateral tail vein. The molecular probe (100 μL) was injected via the lateral tail vein at 0.3 μmol per kg of body weight. […] [SEQ ID NO:1] were constituted in a vial, and doses of 0.3 μmol per kg of body weight were injected into the A549 tumor-bearing mice.
A non-invasive in vivo continuous wave fluorescence imaging apparatus was used to visualize the distribution and preferential tissue uptake of the cypate-peptide molecular beacons in the nude mice (Achilefu (2004) Technol. Cancer Res. Treat. 3:393-409, incorporated herein by reference). Light from two laser diodes of nominal wavelength 780 nm and nominal power of 50 mW was launched into a fiber optic bundle. Two laser diodes were used to produce as much uniform illumination of the whole animal or organ parts as possible. The nominal 50 mW of incident power was reduced to about 44 mW at the output of the fiber optic bundle. A de-focusing lens in position after the bundle expanded the beam such that nearly the whole animal was illuminated. A Photometrics CCD camera (16 bit, 1024×1024 pixel, back illuminated, thermoelectric Peltier cooled with forced air) was used to capture the emitted photons. An interference filter (830 nm) was mounted in front of the CCD camera input lens such that only emitted fluorescent light from the contrast agent was imaged. Real-time acquisition, display and data processing software (WinView/32) was used to obtain the optical image. The samples were dissolved in 20% aqueous DMSO and animals were injected with doses of 0.3 μmol/kg body weight via the lateral tail vein. Injected volumes were 100 μL for each mouse. Data analysis consisted of subtracting (pixel by pixel) the pre-injection image from the post injection images, and displaying the false color results. Integration of the relative fluorescence intensities of tumor vs. surrounding tissues indicated the extent of selective uptake of the contrast agent. At the completion of the study, the mice were euthanized and some organ parts were excised and rinsed with water. The tissues were placed under the CCD camera and the fluorescence emission from each organ was measured after excitation with the 780 nm laser sources. Tissue parts, instead of whole organs, were used to minimize problems associated with depth-dependent non-linear fluorescence emission. A statistical program in the WinView package was used to estimate the mean fluorescence intensity per organ part.
In vivo optical imaging studies using the cypate-peptide optical probes were performed and analyzed as described above in Example 1. […]

A549 cells [3] = assay: CyQuant cytotoxicity and proliferation assay; format: cell-based, human; details: 48 hours
Procedure: Cells were seeded at 2.5×10^4 cells/well and grown in 96 well plates in the presence of 0−1.5×10^−5 M cypate conjugated peptides for 24 or 48 hours. Cell proliferation was measured using the CyQuant proliferation assay from Molecular Probes (Eugene, Oreg.) per the manufacturer's protocol. Briefly, after incubation the microplate was inverted to remove the media and frozen at −70° C. overnight. The microplate was thawed at room temperature and 200 μL of the CyQuant GR dye/cell-lysis buffer was added to each well. […]
Because the Cyquant assay is based on the adherence of a dye to nucleic acids, the assay is a measure of both proliferative and cytotoxic effects.

[4] = Absorption and emission spectral properties in 20% aqueous DMSO; format: physicochemical
Procedure: The spectral properties of cypate and the cypate-peptide conjugates were determined in 20% aqueous DMSO, which solubilizes all the compounds. […] Absorbance measurements were performed with a Beckman Coulter DU 640 spectrophotometer. The fluorescence spectra were recorded on Fluorolog-3 fluorometer (HORIBA Jobin Yvon Inc., Edison, N.J.). To prepare the stock solutions, a high precision analytical balance was used to weigh >2 mg of each compound, which was dissolved in DMSO. The DMSO solutions were then diluted with water to obtain a final solution of 20% aqueous DMSO. An aliquot (known volume) of the solution was transferred to a cuvette with 1 μL precision micropipettes and diluted with 20% aqueous DMSO solvent mixture to give a working solution that absorbs at <1.0 absorbance unit. Aliquots of the working solution were diluted with 20% aqueous DMSO and used to determine the molar absorptivity of each compound. For fluorescence measurements, probe solutions with 0.1 absorbance units were used to minimize inner filter effects.
Previous studies have shown that this solvent mixture boosts fluorescence intensity and is well tolerated by rodents. Additionally, the dyes and their peptide conjugates are soluble in this solvent mixture, providing a common medium for spectral measurements.
Absorbance spectra were measured on a Beckman Coulter DU 640 UV-Visible spectrophotometer. Fluorescence spectra were recorded on a HORIBA Jobin Yvon Fluorolog-3 fluorometer. Stock solutions (1.0 mM) of the conjugates were prepared by dissolving each sample in 80% aqueous DMSO. UV-Vis and fluorescence measurements were carried out by adding 5.0 μL of the stock solutions via a micropipette into 3 mL of 20% aqueous DMSO in a quartz cuvette.

A549 cells [5] = assay: Cellular internalization and blocking studies by fluorescence microscopy (Example 1); details: for internalization in A549 cells: 1 μM
A549 tumor [6] = tested on: A549 tumor; design: species or system mice; details: mouse, in vivo
Description: The hypothesis that the “RD” motif was solely responsible for the tumor uptake was further tested by injecting ^111In-DOTA-GRD [SEQ ID NO:15] (120 μCi; 1 Ci=37 GBq) into A549 tumor-bearing mice.

[7] = Table 2, read-out: IC50 (αvβ3 integrin binding affinities)

- IC50 ([1]; Table 3, read-out: IC50): 1.89 µM
Compound: CC(C)[C@@H]1NC(=O)[C@@H](Cc2ccccc2)NC(=O)[C@H](CC(=O)O)NC(=O)CNC(=O)[C@H](CCCNC(=N)N)NC(=O)[C@H](CCCCN)NC1=O [Cyclo(DPhe-Val-Lys-Arg-Gly-Asp)-OH] (HELM PEPTIDE1{R.G.D.[dF].V.K}$PEPTIDE1,PEPTIDE1,1:R1-6:R2$$$V2.0)

- IC50 [1, 7]: 79.5 µM
Compound: CC(C)[C@@H]1NC(=O)[C@@H](Cc2ccccc2)NC(=O)[C@H](CC(=O)O)NC(=O)CNC(=O)[C@H](CCCNC(=N)N)NC(=O)[C@H](CCCCNC(=O)CCN2/C(=C/C=C/C=C/C=C/C3=[N+](CCC(=O)O)c4ccc5ccccc5c4C3(C)C)C(C)(C)c3c2ccc2ccccc32)NC1=O [Cyp-cyclo-RGD, Cypate-cyclo[RGDfVK^(Cypate)]] (cyclo(RGD[dF]VK(Cypate)))
- uptake / retention in A549 tumor (A549 tumor [2]): preferentially localized
- accumulation / retention in nontarget tissues (A549 tumor [2]; 24 h post injection): equally high
- retention in the tumor, cyclic versus linear Cyp-RGD (A549 tumor [2]; 24 h post injection): higher by a factor of three
- cytotoxicity (CyQuant), longer treatment (A549 cells [3]): some cytotoxicity

Compound: CC1(C)C(/C=C/C=C/C=C/C=C2\N(CCCCS(=O)(=O)O)c3ccc4ccccc4c3C2(C)C)=[N+](CCCCS(=O)(=O)[O-])c2ccc3ccccc3c21 [indocyanine green, reference compound]
- uptake / retention in A549 tumor (A549 tumor [2]): None of the three non-ABI-specific probes were retained in the A549 tumor tissue

Compound: cytate [reference compound]
- uptake / retention in A549 tumor (A549 tumor [2]): None of the three non-ABI-specific probes were retained in the A549 tumor tissue

Compound: GRDSPK (listed as Homo sapiens) [GRD peptide]
- blocking of Cyp-GRD uptake in the tumor by co-injection (A549 tumor [2]; equimolar, 0.3 μmol/kg body weight, 24 h post injection): unable to block

- IC50 ([1]; Table 3, read-out: IC50): 0.722 µM
Compound: CC(C)[C@H](NC(=O)[C@@H](NC(=O)[C@@H]1CSSC[C@H](NC(=O)[C@H](N)Cc2ccccc2)C(=O)N[C@@H](Cc2ccc(O)cc2)C(=O)N[C@H](Cc2c[nH]c3ccccc23)C(=O)N[C@@H](CCCCN)C(=O)N[C@@H]([C@@H](C)O)C(=O)N1)[C@@H](C)O)C(=O)N[C@@H](CCCNC(=N)N)C(=O)NCC(=O)N[C@@H](CC(=O)O)C(N)=O [H-DPhe-Cyclo(Cys-Tyr-DTrp-Lys-Thr-Cys)-Thr-Val-Arg-Gly-Asp-NH2] (HELM PEPTIDE1{[dF].C.Y.[dW].K.T.C.T.V.R.G.D.[am]}$PEPTIDE1,PEPTIDE1,2:R3-7:R3$$$V2.0)

- ^abεmax [4]: 244,400 cm^−1Mol^−1
- ^abλmax [4]: 786 nm
- ^emλmax [4]: 811 nm
- time of clearance from blood by the liver (A549 tumor [2]; after injection): ≤ 4 h
Compound: CC1(C)C(/C=C/C=C/C=C/C=C2/N(CCC(=O)O)c3ccc4ccccc4c3C2(C)C)=[N+](CCC(=O)[O-])c2ccc3ccccc3c21 [Cypate, cypate, reference compound]
- uptake / retention in A549 tumor (A549 tumor [2]): not retained in the tumor; also recorded: None of the three non-ABI-specific probes were retained in the A549 tumor tissue
- internalization in A549 cells (A549 cells [5]; 37° C.): did not internalize

Compound: N=C(N)NCCC[C@H](NC(=O)CNC(=O)CN1CCN(CC(=O)O)CCN(CC(=O)O)CCN(CC(=O)O)CC1)C(=O)N[C@@H](CC(=O)O)C(=O)N[C@@H](CO)C(=O)N1CCC[C@H]1C(=O)N[C@@H](CCCCN)C(=O)O [^111In-DOTA-GRD, metal not drawn] (HELM PEPTIDE1{[O=C(O)CN1CCN(CC(=O)O)CCN(CC(=O)[*:2])CCN(CC(=O)O)CC1].G.R.D.S.P.K}$$$$V2.0)
- clearance (scintigraphy) (A549 tumor [6]): rapid renal clearance
- localization of the material (A549 tumor [6]): nearly all of the material localized in the bladder

Compound: Cypate-3-GRDSPK ({Cypate‑3}-GRDSPK; listed as Homo sapiens) [Cyp-3-GRD]
- ^abεmax [4]: 128,538 cm^−1Mol^−1
- ^abλmax [4]: 684 nm
- ^emλmax [4]: 703 nm
- internalization in A549 cells (A549 cells [5]; 37° C.): internalized
- cellular localization at 4° C. (A549 cells [5]; A549 cells incubated at 4° C.): remained in the peripheral region of the cell membrane
- translocation into the nucleus (A549 cells [5]; A549 cells, 37° C.): did not translocate into the nucleus

Compound: CC1(C)C(=CC=CC=CC=CC2=[N+](CCC(=O)O)c3ccc4ccccc4c3C2(C)C)N(CCC(=O)N[C@H]2CSSC[C@@H](C(N)=O)NC(=O)[C@H](CC(=O)O)NC(=O)CNC(=O)[C@H](CCCNC(=N)N)NC2=O)c2ccc3ccccc3c21 [Cypate-cyclo(CRGDC)-NH2] (HELM PEPTIDE1{[CC1(C)C(/C=C/C=C/C=C/C=C2/N(CCC(=O)[*:2])c3ccc4ccccc4c3C2(C)C)=[N+](CCC(=O)O)c2ccc3ccccc3c21].C.R.G.D.C.[am]}$PEPTIDE1,PEPTIDE1,2:R3-6:R3$$$V2.0)
- IC50 [1, 7]: 4.6 µM
